Columns and labels:
[1] = molecular target: T1, Histone-lysine N-methyltransferase SMYD3 (Homo sapiens, UniProt Q9H7B4); experiment: Inhibition of full length N-terminal His-tagged SMYD3 (1 to 428 residues) (unknown origin) expressed in Escherichia coli using N-terminal GST-tagged MEKK2 as substrate preincubated for 30 mins followed by substrate addition by scintillation proximity assay in presence of [3H]SAM
T1 sequence (Q9H7B4 whole entry): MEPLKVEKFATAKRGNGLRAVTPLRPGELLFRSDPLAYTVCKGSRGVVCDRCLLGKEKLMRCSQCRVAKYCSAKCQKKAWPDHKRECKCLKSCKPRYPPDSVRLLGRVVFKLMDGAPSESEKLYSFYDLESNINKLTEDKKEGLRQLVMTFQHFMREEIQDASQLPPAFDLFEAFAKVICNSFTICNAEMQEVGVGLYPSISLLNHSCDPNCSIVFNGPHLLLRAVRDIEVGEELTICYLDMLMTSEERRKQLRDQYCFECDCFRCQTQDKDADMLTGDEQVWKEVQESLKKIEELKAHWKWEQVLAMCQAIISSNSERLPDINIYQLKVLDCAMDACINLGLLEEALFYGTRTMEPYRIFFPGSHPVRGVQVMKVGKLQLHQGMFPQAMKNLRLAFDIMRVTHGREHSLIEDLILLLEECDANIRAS

[2] = molecular target: T1, Histone-lysine N-methyltransferase SMYD3; experiment: Inhibition of human SMYD3 expressed in HEK293T/17 cells using FLAG-tagged MEKK2 as substrate incubated for 30 mins in low air flow area followed by incubation for 24 hrs at 37 degC by Western blot analysis; type: cell-based, HEK-293T

| SMILES | IC50 [1] | IC50 [2] |
| --- | --- | --- |
| NC1CCN(S(=O)(=O)N2[C@@H]3CC[C@H]2C[C@@H](NC(=O)c2cc4c(cc2F)NC(=O)C4)C3)CC1 | 5 nM |  |
| NCCCS(=O)(=O)N1CCC(NC(=O)c2cc3c(cc2Cl)NC(=O)C3)CC1 | 80 nM |  |
| O=C1Cc2cc(C(=O)N[C@H]3C[C@H]4CC[C@@H](C3)N4S(=O)(=O)C[C@H]3CCCNC3)c(Cl)cc2N1 | 4 nM | 1300 nM |
| CN1CCC(CS(=O)(=O)N2[C@@H]3CC[C@H]2C[C@@H](NC(=O)c2ccc4c(c2)CC(=O)N4)C3)CC1 | 1 nM |  |
| Cc1cc2c(cc1C(=O)N[C@H]1C[C@H]3CC[C@@H](C1)N3S(=O)(=O)N1CCC(N)CC1)CC(=O)N2 |  | 410 nM |
| O=C1Cc2cc(C(=O)N[C@H]3C[C@H]4CC[C@@H](C3)N4S(=O)(=O)CC3CCN(CCCO)CC3)c(Cl)cc2N1 | 2 nM |  |
| O=C1Cc2cc(C(=O)N[C@H]3C[C@H]4CC[C@@H](C3)N4S(=O)(=O)CC3CCNCC3)c(Cl)cc2N1 | 4 nM | 3200 nM |
| CNC1CCN(S(=O)(=O)N2[C@@H]3CC[C@H]2C[C@@H](NC(=O)c2cc4c(cc2Cl)NC(=O)C4)C3)CC1 | 2 nM |  |
| N[C@H]1CC[C@H](S(=O)(=O)N2[C@@H]3CC[C@H]2C[C@@H](NC(=O)c2ccc4c(c2)CC(=O)N4)C3)CC1 | 4 nM | 2200 nM |
| CN(C)C1CCN(S(=O)(=O)N2[C@@H]3CC[C@H]2C[C@@H](NC(=O)c2cc4c(cc2Cl)NC(=O)C4)C3)CC1 | 3 nM |  |
| NCCCS(=O)(=O)N1CCC(NC(=O)c2ccc3c(c2)CC(=O)N3)CC1 |  | > 10000 nM |
| NC1CCN(S(=O)(=O)N2[C@@H]3CC[C@H]2C[C@@H](NC(=O)c2cc4c(cc2Cl)NC(=O)C4)C3)CC1 | 1 nM | 1100 nM |
| O=C1Cc2cc(C(=O)NC3CCN(S(=O)(=O)CC4CCNCC4)CC3)ccc2N1 | 70 nM | > 10000 nM |
| NC1CCN(S(=O)(=O)N2[C@@H]3CC[C@H]2C[C@@H](NC(=O)c2ccc4c(c2)CC(=O)N4)C3)CC1 | 1 nM |  |
